In brackets after ≈: the same amount, converted by molar mass. Like-named read-outs stand apart in the source and are kept apart here.

What is called MIC is the smallest concentration in the dilution series that meets the test's criterion for growth inhibition.

In assay [1] the test system is Brachyspira hyodysenteriae. Nature of the assay: Swine dysentery animal disease model, prevention of clinical disease. The assay is classed as in vivo, pigs.
For assay [2], the system named is Brachyspira hyodysenteriae. In words: Swine dysentery, treatment of clinical outbreak. The format is in vivo, pigs.
The test system of assay [3] is Brachyspira hyodysenteriae. Nature of the assay: In vitro MIC against Brachyspira hyodysenteriae strains (Table 2). The assay is classed as cell-based.
Assay [4] deals with Brachyspira hyodysenteriae. In words: Sensitivity (MIC) for AIVLOSIN and chlortetracycline, alone and in combination. As to conditions: for MIC: Brachyspira hyodysenteriae, alone; for MIC of each for combination of CTC + AIV: in combination CTC + AIV. The assay is classed as cell-based. The source says: 4. Sensitivity of Bacteria for AIVLOSIN and Tetracyclines, Alone and in Combination.
Sensitivity is expressed as the lowest concentration of an antibiotic (in mcg/ml) that inhibits the growth of the test bacteria (MIC=Minimum Inhibitory Concentration).
Brachyspira Hyodysenteriae

Assay [5] has as its system Mycoplasma Synoviae. Nature of the assay: Sensitivity (MIC) for AIVLOSIN and tetracyclines, alone and in combination. As to conditions: for MIC: Mycoplasmopsis synoviae, alone; for MIC of each for combination CTC + AIV: in combination CTC + AIV; for MIC of each for combination OTC + AIV: in combination OTC + AIV. The format is cell-based.
The test system of assay [6] is Clostridium perfringens. The format is cell-based.

As for `C=C[C@]1(C)C[C@@H](OC(=O)CSCCN(CC)CC)[C@]2(C)[C@H](C)CC[C@]3(CCC(=O)[C@H]32)[C@@H](C)[C@@H]1O` [Tiamulin, tiamulin], the “Period for which the drug needs to be provided to prevent an outbreak” value in assay [1] (artificially infected pigs) is given as “whole period in which the pigs are at risk”. In addition, in assay [2] (100 ppm 10 days), the “Mean days to clear B.Hyo” value came to 5.8 days and the “Mean days to recovery” value was 4.4 days. Besides, the “Mean score at start” value in assay [2] (100 ppm 10 days, clinical scoring 0 = normal, 6 = moribund, baseline) is given as 4.0.

On to `CC[C@H]1OC(=O)C[C@@H](O)[C@H](C)[C@@H](O[C@@H]2O[C@H](C)[C@@H](O[C@H]3C[C@@](C)(O)[C@@H](O)[C@H](C)O3)[C@H](N(C)C)[C@H]2O)[C@@H](CC=O)C[C@@H](C)C(=O)/C=C/C(C)=C/[C@@H]1CO[C@@H]1O[C@H](C)[C@@H](O)[C@@H](OC)[C@H]1OC` [Tylosin, tylosin], for which the MIC in assay [3] (strain AF 6/80) is 6.25 µg/mL (≈ 6.82 µM). In addition, the MIC in assay [3] (strain PI8A) was more than 200 µg/mL. In assay [3] (strain PO268-07.98), this molecule had an MIC of more than 200 µg/mL. The “Period for which the drug needs to be provided to prevent an outbreak” value in assay [1] (pig, in vivo) is not below 21 days. Moreover, in assay [2] (100 ppm 21 days), the “Mean days to clear B.Hyo” value came out at 3.0 days, the “Mean days to recovery” value was found to be 2.1 days and the “Mean score at start” value worked out at 3.7.

Turning to `CN(C)[C@@H]1C(O)=C(C(N)=O)C(=O)[C@@]2(O)C(O)=C3C(=O)c4c(O)ccc(Cl)c4[C@@](C)(O)[C@H]3C[C@@H]12` [CTC, chlortetracycline], the MIC in assay [4] (strain AF6) is 0.5 µg/mL; in assay [4] (strain P265-9-97), 16 µg/mL; in assay [4] (strain P268-9-97), 16 µg/mL; in assay [4] (strain P578-6-97), 16 µg/mL; in assay [5] (strain 173), 0.78 µg/mL; in assay [5] (strain 185), 0.78 µg/mL. The MIC in assay [5] (strain 211) worked out at 0.39 µg/mL; in assay [5] (strain 312) it was 3.12 µg/mL; in assay [5] (strain wvu 1835), 0.39 µg/mL. The “MIC of each for combination of CTC + AIV” value in assay [4] (strain AF6) was 0.125 µg/mL; in assay [4] (strain P265-9-97), 4.0 µg/mL; in assay [4] (strain P268-9-97), 8.0 µg/mL; in assay [4] (strain P578-6-97) it was 8.0 µg/mL. The “MIC of each for combination CTC + AIV” value in assay [5] (strain 173), in assay [5] (strain 185), in assay [5] (strain 211), in assay [5] (strain 312) and in assay [5] (strain wvu 1835) was 0.1 µg/mL throughout.

As to `CN(C)[C@@H]1C(O)=C(C(N)=O)C(=O)[C@@]2(O)C(O)=C3C(=O)c4c(O)cccc4[C@@](C)(O)[C@H]3[C@H](O)[C@@H]12` [OTC, oxytetracycline], the MIC in assay [5] (strain 173) was determined as 0.39 µg/mL; in assay [5] (strain 185), 0.2 µg/mL; in assay [5] (strain 211), 0.39 µg/mL; in assay [5] (strain 312), 0.78 µg/mL; in assay [5] (strain wvu 1835) it was 0.39 µg/mL. Moreover, the “MIC of each for combination OTC + AIV” value in assay [5] (strain 173), in assay [5] (strain 185), in assay [5] (strain 211), in assay [5] (strain 312) and in assay [5] (strain wvu 1835) was 0.1 µg/mL in each case.

On to zinc bacitracin, for which the MIC was found to be 3.125 µg/mL in assay [6] (strain 378); 1.56 µg/mL in assay [6] (strain 389); 1.56 µg/mL in assay [6] (strain 392); 3.125 µg/mL in assay [6] (strain 395); 3.125 µg/mL in assay [6] (strain 410); 6.25 µg/mL in assay [6] (strain 412). For the same molecule, the minimal inhibitory concentration (MIC) in assay [6] (strain 413) came out at 6.25 µg/mL.
